Data reported in patent US20260363243A1 (priority 2022, published 2026).

Key:
cucumber downy mildew = test: Activity in vivo for inhibiting cucumber downy mildew (potting method, greenhouse)
Text: The test and investigation method refers to a SOP-SC-1098 cucumber downy mildew potting method in the fungicide section of Standard operation Specification for testing biological Activity of pesticides written by Kang Zhuo and Gu Baogen.

Phytophthora capsici = test: In vitro inhibition of hypha growth of oomycete pathogens (microplate, OD595): Phytophthora capsici; format: cell-based
Phytophthora infestans = test: microbe, parasite or virus in culture; format: cell-based
Phytophthora sojae = test: In vitro inhibition of hypha growth of oomycete pathogens (microplate, OD595): Phytophthora sojae; format: cell-based
Phytophthora nicotianae = test: In vitro inhibition of hypha growth of oomycete pathogens (microplate, OD595): Phytophthora nicotianae; format: cell-based
[1] = test system: Cucumber downy mildew (Pseudoperonospora cubensis); test: Field efficacy test for controlling cucumber downy mildew
Experimental: The test was carried out according to the Guidelines for the Field Efficacy Trials of Pesticides (Part 1): Fungicides Against Downy Mildew of Cucumber (GB/T17980.26-2000). The test site was a mature vegetable base of Hushu in Nanjing, Jiangsu Province. Cucumber downy mildew (Pseudoperonospora cubensis) was used as the target, oxathiapiprolin and Yin Fali were used as control agents. The test crops was cucumber and the variety was ‘Green Core’. The plots were arranged in a randomized block design, with each plot approximately 8 m^2 and each treatment replicated three times. The whole stem and leaf spray was employed, the test was carried out at the early stage of cucumber downy mildew occurrence, and the agents were applied twice consecutively, with the second application 5 days after the first one. The investigation method was to take one investigation point for every row of cucumbers in each treatment district, assess the severity of downy mildew of all leaves of all cucumber plants, and calculate the disease index and the prevention effect.

[2] = read-out: inhibitory activity on hypha growth
[3] = Phytophthora nicotianae, read-out: inhibitory activity on hypha growth
[4] = after the first pesticide application, 50 mg/L
[5] = after the second pesticide application, 50 mg/L

`CCOC(CC(=O)N1CCC(c2nc(C3=NOC(c4c(F)cccc4F)C3)cs2)CC1)OC` (stereo not drawn) [II-3] was tested, and the “efficacy compared with OXA” value (cucumber downy mildew; 0.005 mg/L, in words) was “comparable to that of the control agent OXA”, the Control effect (cucumber downy mildew; 0.005 mg/L, re-screening, Table 2) was “A (90%≤A≤100%)” and the Control effect (cucumber downy mildew; 0.02 mg/L, re-screening, Table 2) was “A (90%≤A≤100%)”. The “efficacy compared with dimethomorph and cyazofamid” value (cucumber downy mildew; 0.078 mg/L, in words) was “superior to that of dimethomorph and cyazofamid”, the “efficacy compared with oxathiapiprolin” value (cucumber downy mildew; 0.078 mg/L, in words) was “equivalent to that of oxathiapiprolin at the same concentration” and the Control effect (cucumber downy mildew; 0.078 mg/L, re-screening) was no less than 90%. For the same molecule, the Control effect (cucumber downy mildew; 0.078 mg/L, re-screening, Table 2) was “A (90%≤A≤100%)”, the Control effect (cucumber downy mildew; 0.312 mg/L, re-screening, Table 2) was “A (90%≤A≤100%)” and the Control effect (cucumber downy mildew; 0.625 mg/L, Table 3) was “A (90% ≤ A ≤ 100%)”. The Control effect (cucumber downy mildew; 1.25 mg/L, Table 1) was “A (90%≤A≤100%)”, the Control effect (cucumber downy mildew; 1.25 mg/L, re-screening, Table 2) was “A (90%≤A≤100%)” and the Control effect (cucumber downy mildew; 2.5 mg/L, Table 3) was “A (90% ≤ A ≤ 100%)”. For the same molecule, the Control effect (cucumber downy mildew; 5 mg/L, Table 1) was “A (90%≤A≤100%)”, the Control effect (cucumber downy mildew; 10 mg/L, Table 3) was “A (90% ≤ A ≤ 100%)” and the Control effect (cucumber downy mildew; 20 mg/L, Table 1) was “A (90%≤A≤100%)”. The bactericidal activity (cucumber downy mildew; re-screening, in words) was “excellent bactericidal activity”, the “inhibitory activity compared with OXA” value (Phytophthora capsici; 5, 0.5 and 0.05 mg/L, in words) was “comparable to that of the control agent OXA” and the inhibition at 0.005 µg/mL (Phytophthora capsici; [2]) was 90 to 100%. The inhibition at 0.05 µg/mL (Phytophthora capsici; [2]) was 90 to 100%, the inhibition at 0.5 µg/mL (Phytophthora capsici; [2]) was 90 to 100% and the inhibition at 5 µg/mL (Phytophthora capsici; [2]) was 90 to 100%. For the same molecule, the “inhibitory activity compared with OXA” value (Phytophthora infestans; 5, 0.5 and 0.05 mg/L, in words) was “comparable to that of the control agent OXA”, the inhibition at 0.005 µg/mL (Phytophthora infestans; [2]) was 75 to 90% and the inhibition at 0.05 µg/mL (Phytophthora infestans; [2]) was 90 to 100%. The inhibition at 0.5 µg/mL (Phytophthora infestans; [2]) was 90 to 100%, the inhibition at 5 µg/mL (Phytophthora infestans; [2]) was 90 to 100% and the “inhibitory activity compared with OXA” value (Phytophthora sojae; 5, 0.5 and 0.05 mg/L, in words) was “comparable to that of the control agent OXA”. It also gave an inhibition at 0.005 µg/mL (Phytophthora sojae; [2]) of 75 to 90%, an inhibition at 0.05 µg/mL (Phytophthora sojae; [2]) of 90 to 100% and an inhibition at 0.5 µg/mL (Phytophthora sojae; [2]) of 90 to 100%. For the same molecule, the inhibition at 5 µg/mL (Phytophthora sojae; [2]) was 90 to 100%, the inhibition at 0.005 µg/mL (Phytophthora nicotianae; [3]) was 90 to 100% and the inhibition at 0.05 µg/mL (Phytophthora nicotianae; [3]) was 90 to 100%. For the same molecule, the inhibition at 0.5 µg/mL (Phytophthora nicotianae; [3]) was 90 to 100%, the inhibition at 5 µg/mL (Phytophthora nicotianae; [3]) was 90 to 100% and the “inhibitory activity compared with OXA” value (Phytophthora nicotianae; Pythium nicotianae, 5, 0.5 and 0.05 mg/L, in words) was “comparable to that of the control agent OXA”. For the same molecule, the “control effect compared with OXA and Yinfali” value ([1]; 50 mg/L, in words) was “better than that of the control agents OXA and Yinfali”, the Average control effect [1, 4] was 66.63% and the Average disease index [1, 4] was 2.80. For the same molecule, the Average control effect [1, 5] was 79.72%, the Average disease index [1, 5] was 6.93 and the “effect in controlling cucumber downy mildew in the field” value ([1]; in words) was “good effect in controlling cucumber downy mildew, it can effectively protect new leaves and can effectively inhibit the spread of disease spots on the infected leaves”.
